Paper PMC7271024, “N1-Benzofused Modification of Fluoroquinolones Reduces Activity Against Gram-Negative Bacteria” (ACS Omega, 2020)
Values after ≈ are worked out from the molar mass of the structure shown.

Tests used:
[1] = test system: panel of Gram-negative pathogens; test: MIC panel, statements across strains; type: cell-based, K. pneumoniae, A. baumannii, P. aeruginosa, E. coli; conditions: versus ciprofloxacin
Method: (§1) The antibacterial activities of the synthesized fluoroquinolones were evaluated against a panel of Gram-negative pathogens including K. pneumoniae (NCTC 13368, M6), Acinetobacter baumannii (AYE, ATCC 17978), Pseudomonas aeruginosa (PAO1, NCTC 13437), and Escherichia coli (NCTC 12923, LEC001). The ability of molecules to permeate the Gram-negative outer membrane was investigated by adding membrane permeabilizer polymyxin B nonapeptide (PMBN) at sub-inhibitory concentrations (Table 2). Phenylalanine–arginine β-naphthylamide (PAβN) was used to investigate efflux of compounds by resistance–nodulation–division (RND)-family efflux pumps (Table 3).
(§2) Minimal inhibitory concentrations (MICs) were determined using the microdilution broth method. Briefly, compounds were added to the first two columns of a 96-well plate and diluted two-fold down the plate in tryptic soy broth. Overnight cultures of bacteria were then adjusted to a concentration of 1 × 10^6 CFU/mL and added to each well for a final concentration of 5 × 10^5 CFU/mL.

[2] = test system: A. baumannii ATCC 17978; test: MIC, microdilution broth method; type: cell-based, Acinetobacter baumannii; conditions: for MIC: Acinetobacter baumannii, ciprofloxacin-sensitive strain (S); for potentiation of MIC by PMBN: MIC –PMBN vs +PMBN
[3] = test system: K. pneumoniae M6; test: MIC, microdilution broth method; type: cell-based, Klebsiella pneumoniae; conditions: for MIC: Klebsiella pneumoniae, ciprofloxacin-sensitive strain (S); for potentiation of MIC by PMBN: MIC –PMBN vs +PMBN
[4] = test system: E. coli NCTC 12923; test: MIC, microdilution broth method; type: cell-based, Escherichia coli; conditions: for MIC: Escherichia coli, ciprofloxacin-sensitive strain (S)
[5] = test system: P. aeruginosa NCTC 13437; test: MIC, microdilution broth method; type: cell-based, Pseudomonas aeruginosa; conditions: for MIC: Pseudomonas aeruginosa; for potentiation of MIC by PMBN: MIC –PMBN vs +PMBN
Method: as §1, §2

[6] = test system: E. coli LEC001; test: MIC, microdilution broth method; type: cell-based, Escherichia coli; conditions: for MIC: Escherichia coli
Method: as §1, §2

[7] = test system: P. aeruginosa PAO1; test: MIC, microdilution broth method; type: cell-based, Pseudomonas aeruginosa; conditions: for MIC: Pseudomonas aeruginosa, ciprofloxacin-sensitive strain (S); for potentiation of MIC by PMBN: MIC –PMBN vs +PMBN
[8] = test system: K. pneumoniae NCTC 13368; test: MIC, microdilution broth method; type: cell-based, Klebsiella pneumoniae; conditions: for MIC: Klebsiella pneumoniae, ciprofloxacin-resistant strain (R); for potentiation of MIC by PMBN: MIC –PMBN vs +PMBN
Method: as §1, §2

[9] = test system: A. baumannii AYE; test: MIC, microdilution broth method; type: cell-based, Acinetobacter baumannii; conditions: for MIC: Acinetobacter baumannii
Method: as §1, §2

[10] = Solubility as observed in the MIC and enzyme experiments; type: physicochemical; conditions: evidenced when undertaking the MIC experiments
Method: In vitro activity assays using purified S. aureus, E. coli and P. aeruginosa DNA gyrase, and S. aureus topoisomerase IV enzymes were performed in order to evaluate whether the gains in inhibitory activity predicted for the benzofused compounds were accurate. The benzothiophene-containing 6e was selected as a representative compound for the purposes of this experiment. […].
A general correlation between N1 substituent hydrophobicity and activity is observed; […].

[11] = NCTC13437, +PMBN (30 μg/mL), ciprofloxacin-resistant strain (R)
[12] = NCTC13437, –PMBN, ciprofloxacin-resistant strain (R)
[13] = LEC001, +PMBN (30 μg/mL), ciprofloxacin-resistant strain (R)
[14] = LEC001, –PMBN, ciprofloxacin-resistant strain (R)
[15] = +PMBN (30 μg/mL), ciprofloxacin-resistant strain (R)
[16] = –PMBN, ciprofloxacin-resistant strain (R)
[17] = PAβN, text names A. baumannii only

| SMILES | antibacterial activity [1] | MIC ([2]; ATCC17978, +PMBN (30 μg/mL)) | MIC ([2]; ATCC17978, –PMBN) | potentiation of MIC by PMBN [2] | MIC ([3]; M6, +PMBN (30 μg/mL)) | MIC ([3]; M6, –PMBN) | potentiation of MIC by PMBN [3] | MIC ([4]; NCTC12923, +PMBN (30 μg/mL)) | MIC ([4]; NCTC12923, –PMBN) | MIC [5, 11] | MIC [5, 12] | MIC [6, 13] | MIC [6, 14] | MIC ([7]; PAO1, +PMBN (30 μg/mL)) | MIC ([7]; PAO1, –PMBN) | MIC ([8]; NCTC13368, +PMBN (30 μg/mL)) | MIC ([8]; NCTC13368, –PMBN) | MIC [9, 15] | MIC [9, 16] | potentiation of MIC by PMBN [7] | other results |
| --- | --- | --- | --- | --- | --- | --- | --- | --- | --- | --- | --- | --- | --- | --- | --- | --- | --- | --- | --- | --- | --- |
| O=C(O)c1cn(-c2cccc3ccoc23)c2cc(N3CCNCC3)c(F)cc2c1=O [Compound 6d] | limited activity | 1 µg/mL (≈ 2.45 µM) | 2 µg/mL (≈ 4.91 µM) | 2 fold | 0.5 µg/mL (≈ 1.23 µM) | 1 to 2 µg/mL (≈ 2.45 to 4.91 µM) | 2–4 fold | 0.25 µg/mL (≈ 0.614 µM) | 1 µg/mL (≈ 2.45 µM) | 32 µg/mL (≈ 78.5 µM) | > 32 µg/mL | > 32 µg/mL | > 32 µg/mL | 0.5 µg/mL (≈ 1.23 µM) | 8 to 16 µg/mL (≈ 19.6 to 39.3 µM) | 2 µg/mL (≈ 4.91 µM) | 16 µg/mL (≈ 39.3 µM) | > 32 µg/mL | > 32 µg/mL | – | potentiation of MIC by PMBN [8]: 4–8 fold |
| O=C(O)c1cn(Cc2ccccc2)c2cc(N3CCNCC3)c(F)cc2c1=O [Compound 6c] | limited activity | 4 µg/mL (≈ 10.5 µM) | 4 to 8 µg/mL (≈ 10.5 to 21 µM) | – | 1 µg/mL (≈ 2.62 µM) | 1 µg/mL (≈ 2.62 µM) | – | 0.5 µg/mL (≈ 1.31 µM) | 1 to 2 µg/mL (≈ 2.62 to 5.24 µM) | 32 µg/mL (≈ 83.9 µM) | > 32 µg/mL | > 32 µg/mL | > 32 µg/mL | 0.5 µg/mL (≈ 1.31 µM) | 8 µg/mL (≈ 21 µM) | 4 µg/mL (≈ 10.5 µM) | 16 µg/mL (≈ 41.9 µM) | > 32 µg/mL | > 32 µg/mL | – | – |
| CCn1cc(C(=O)O)c(=O)c2cc(F)c(N3CCNCC3)cc21 [Compound 6b, norfloxacin, reference compound] | – | 4 µg/mL (≈ 12.5 µM) | 8 µg/mL (≈ 25.1 µM) | 1–2 fold | 0.5 µg/mL (≈ 1.57 µM) | 0.25 to 0.5 µg/mL (≈ 0.783 to 1.57 µM) | 1 fold | 0.125 µg/mL (≈ 0.391 µM) | 0.125 µg/mL (≈ 0.391 µM) | 32 µg/mL (≈ 100 µM) | > 32 µg/mL | > 32 µg/mL | > 32 µg/mL | 0.5 µg/mL (≈ 1.57 µM) | 2 to 4 µg/mL (≈ 6.26 to 12.5 µM) | 2 µg/mL (≈ 6.26 µM) | 4 µg/mL (≈ 12.5 µM) | > 32 µg/mL | > 32 µg/mL | 4–16 fold | potentiation of MIC by PMBN [8]: 2 fold |
| O=C(O)c1cn(C2CC2)c2cc(N3CCNCC3)c(F)cc2c1=O [Compound 6a, ciprofloxacin, reference compound] | – | 0.5 µg/mL (≈ 1.51 µM) | 0.5 µg/mL (≈ 1.51 µM) | 1–2 fold | – | – | 1 fold | 0.03 to 0.06 µg/mL (≈ 0.0905 to 0.181 µM) | ≤ 0.03 µg/mL | 16 µg/mL (≈ 48.3 µM) | > 32 µg/mL | 32 µg/mL (≈ 96.6 µM) | 16 µg/mL (≈ 48.3 µM) | – | – | – | – | > 32 µg/mL | > 32 µg/mL | 4–16 fold | effect of PAβN on MIC [2, 17]: Neither ciprofloxacin nor compound 6e showed any difference in MIC; effect of PAβN on MIC ([3]; RND-family efflux inhibitor PAβN): not evident; effect of PAβN on MIC ([4]; PAβN, text names E. coli only): No effect; MIC ([5]; NCTC13437, +PAβN (25 μg/mL), Table 3, strain R): 16 µg/mL (≈ 48.3 µM); MIC ([5]; NCTC13437, –PAβN, Table 3, strain R): 32 µg/mL (≈ 96.6 µM); MIC ([6]; LEC001, +PAβN (25 μg/mL), Table 3, strain R): 32 µg/mL (≈ 96.6 µM); MIC ([6]; LEC001, –PAβN, Table 3, strain R): 16 µg/mL (≈ 48.3 µM); effect of PAβN on MIC ([6]; PAβN, text names E. coli only): No effect; MIC ([9]; +PAβN (25 μg/mL), Table 3, strain R): > 32 µg/mL; MIC ([9]; –PAβN, Table 3, strain R): 32 µg/mL (≈ 96.6 µM); effect of PAβN on MIC [9, 17]: Neither ciprofloxacin nor compound 6e showed any difference in MIC |
| O=C(O)c1cn(Cc2cccc3ccsc23)c2cc(N3CCNCC3)c(F)cc2c1=O [Compound 6g] | almost complete loss of activity | > 128 µg/mL | > 128 µg/mL | – | > 128 µg/mL | > 128 µg/mL | – | 128 µg/mL (≈ 293 µM) | > 128 µg/mL | 16 µg/mL (≈ 36.6 µM) | > 128 µg/mL | > 32 µg/mL | > 32 µg/mL | 32 µg/mL (≈ 73.1 µM) | > 128 µg/mL | > 128 µg/mL | > 128 µg/mL | > 128 µg/mL | > 128 µg/mL | over 8 fold | solubility profile [10]: poor solubility profiles; potentiation of MIC by PMBN [5]: over 8 fold |
| O=C(O)c1cn(Cc2cccc3ccoc23)c2cc(N3CCNCC3)c(F)cc2c1=O [Compound 6f] | almost complete loss of activity | > 128 µg/mL | > 128 µg/mL | – | > 128 µg/mL | > 128 µg/mL | – | 32 µg/mL (≈ 75.9 µM) | > 128 µg/mL | 32 µg/mL (≈ 75.9 µM) | > 128 µg/mL | > 32 µg/mL | > 32 µg/mL | 16 µg/mL (≈ 38 µM) | > 128 µg/mL | > 128 µg/mL | > 128 µg/mL | > 128 µg/mL | > 128 µg/mL | over 8 fold | solubility profile [10]: poor solubility profiles; potentiation of MIC by PMBN [5]: over 8 fold |
